Laboratory results reported in ChEMBL document CHEMBL2157909, “Design, synthesis, spectral and biological evaluation of novel 1-allyl substituted 2,6-diphenylpiperidin-4-ones and its derivatives of oximes/oxime ethers” (2012).
In brackets after ≈: the same amount, converted by molar mass.

Experiments:
Rhizopus = assay: Antifungal activity against Rhizopus sp. ATCC 2842 after 72 to 96 hrs by two fold serial dilution method; assay type: functional
Aspergillus flavus = assay: Antifungal activity against Aspergillus flavus ATCC 525 after 72 to 96 hrs by two fold serial dilution method; assay type: functional
Fusarium oxysporum = assay: Antifungal activity against Fusarium oxysporum ATCC 48112 after 72 to 96 hrs by two fold serial dilution method; assay type: functional
Salmonella typhi = assay: Antibacterial activity against Salmonella typhi ATCC 25021 after 24 hrs by two fold serial dilution method; assay type: functional, Salmonella enterica subsp. enterica serovar Typhi; conditions: Salmonella enterica, ATCC 25021, 24 h
Aspergillus niger = assay: Antifungal activity against Aspergillus niger ATCC 635 after 72 to 96 hrs by two fold serial dilution method; assay type: functional
Staphylococcus aureus = assay: Antibacterial activity against Staphylococcus aureus ATCC 25930 after 24 hrs by two fold serial dilution method; assay type: functional; conditions: ATCC 25930, 24 h
Pseudomonas = assay: Antibacterial activity against Pseudomonas ATCC 27853 after 24 hrs by two fold serial dilution method; assay type: functional; conditions: ATCC 27853, 24 h
Penicillium chrysogenum = assay: Antifungal activity against Penicillium chrysogenum ATCC 28089 after 72 to 96 hrs by two fold serial dilution method; assay type: functional
Bacillus subtilis = assay: Antibacterial activity against Bacillus subtilis ATCC 530 after 24 hrs by two fold serial dilution method; assay type: functional; conditions: ATCC 530, 24 h
Escherichia coli = assay: Antibacterial activity against Escherichia coli ATCC 26032 after 24 hrs by two fold serial dilution method; assay type: functional; conditions: ATCC 26032, 24 h

| SMILES | MIC (Rhizopus) [mg/L] | MIC (Aspergillus flavus) [mg/L] | MIC (Fusarium oxysporum) [mg/L] | MIC (Salmonella typhi) [mg/L] | MIC (Aspergillus niger) [mg/L] | MIC (Staphylococcus aureus) [mg/L] | MIC (Pseudomonas) [mg/L] | MIC (Penicillium chrysogenum) [mg/L] | MIC (Bacillus subtilis) [mg/L] | MIC (Escherichia coli) [mg/L] |
| --- | --- | --- | --- | --- | --- | --- | --- | --- | --- | --- |
| C=CCN1[C@H](c2ccccc2)CC(=O)[C@@H](C)[C@@H]1c1ccccc1 (relative stereo) | 200 (≈ 655 µM) | 50 (≈ 164 µM) | 100 (≈ 327 µM) | 50 (≈ 164 µM) | 50 (≈ 164 µM) | 100 (≈ 327 µM) | 200 (≈ 655 µM) | 50 (≈ 164 µM) | 200 (≈ 655 µM) | 100 (≈ 327 µM) |
| C=CCN1[C@H](c2ccccc2)C/C(=N\OCc2ccccc2)[C@@H](C)[C@@H]1c1ccccc1 (relative stereo) | 25 (≈ 60.9 µM) | 50 (≈ 122 µM) | 200 (≈ 487 µM) | 12.5 (≈ 30.4 µM) | 50 (≈ 122 µM) | 50 (≈ 122 µM) | 50 (≈ 122 µM) | 100 (≈ 244 µM) | 6.25 (≈ 15.2 µM) | 25 (≈ 60.9 µM) |
| C=CCN1[C@H](c2ccc(Cl)cc2)C/C(=N\OCc2ccccc2)[C@@H](C)[C@@H]1c1ccc(Cl)cc1 (relative stereo) | 6.25 (≈ 13 µM) | 12.5 (≈ 26.1 µM) | 25 (≈ 52.1 µM) | 50 (≈ 104 µM) | 25 (≈ 52.1 µM) | 6.25 (≈ 13 µM) | 100 (≈ 209 µM) | 6.25 (≈ 13 µM) | 25 (≈ 52.1 µM) | 12.5 (≈ 26.1 µM) |
| C=CCN1[C@@H](c2ccccc2)C(C)(C)C(=O)C[C@H]1c1ccccc1 (relative stereo) | 100 (≈ 313 µM) | 25 (≈ 78.3 µM) | 50 (≈ 157 µM) | 12.5 (≈ 39.1 µM) | 50 (≈ 157 µM) | 25 (≈ 78.3 µM) | 25 (≈ 78.3 µM) | 25 (≈ 78.3 µM) | 100 (≈ 313 µM) | 25 (≈ 78.3 µM) |
| C[C@@H]1[C@H](O)[C@@H](C)/C=C/C=C/C=C/C=C/C=C/C=C/C=C/[C@H](O[C@@H]2O[C@H](C)[C@@H](O)[C@H](N)[C@@H]2O)C[C@@H]2O[C@](O)(C[C@@H](O)C[C@@H](O)[C@H](O)CC[C@@H](O)C[C@@H](O)CC(=O)O[C@H]1C)C[C@H](O)[C@H]2C(=O)O [AMPHOTERICIN B] | 25 (≈ 27.1 µM) | 50 (≈ 54.1 µM) | 50 (≈ 54.1 µM) | – | 50 (≈ 54.1 µM) | – | – | 12.5 (≈ 13.5 µM) | – | – |
| C=CCN1[C@H](c2ccc(C)cc2)C/C(=N\OCc2ccccc2)[C@@H](C)[C@@H]1c1ccc(C)cc1 (relative stereo) | 50 (≈ 114 µM) | 100 (≈ 228 µM) | 100 (≈ 228 µM) | 50 (≈ 114 µM) | 12.5 (≈ 28.5 µM) | 100 (≈ 228 µM) | 100 (≈ 228 µM) | 6.25 (≈ 14.2 µM) | 50 (≈ 114 µM) | 200 (≈ 456 µM) |
| C=CCN1[C@H](c2ccccc2)[C@@H](C)C(=O)[C@@H](C)[C@@H]1c1ccccc1 | 200 (≈ 626 µM) | 100 (≈ 313 µM) | 50 (≈ 157 µM) | 100 (≈ 313 µM) | 100 (≈ 313 µM) | 12.5 (≈ 39.1 µM) | 50 (≈ 157 µM) | 50 (≈ 157 µM) | 25 (≈ 78.3 µM) | 100 (≈ 313 µM) |
| C=CCN1[C@H](c2ccccc2)[C@@H](C)/C(=N/O)[C@@H](C)[C@@H]1c1ccccc1 (relative stereo) | 200 (≈ 598 µM) | 100 (≈ 299 µM) | 50 (≈ 149 µM) | 100 (≈ 299 µM) | 50 (≈ 149 µM) | 50 (≈ 149 µM) | 50 (≈ 149 µM) | 100 (≈ 299 µM) | 25 (≈ 74.7 µM) | 50 (≈ 149 µM) |
| C=CCN1[C@H](c2ccc(OC)cc2)CC(=O)[C@@H](C)[C@@H]1c1ccc(OC)cc1 (relative stereo) | 25 (≈ 68.4 µM) | 50 (≈ 137 µM) | 25 (≈ 68.4 µM) | 25 (≈ 68.4 µM) | 12.5 (≈ 34.2 µM) | 100 (≈ 274 µM) | 100 (≈ 274 µM) | 50 (≈ 137 µM) | 6.25 (≈ 17.1 µM) | 50 (≈ 137 µM) |
| C=CCN1[C@H](c2ccc(Cl)cc2)CC(=O)[C@@H](C)[C@@H]1c1ccc(Cl)cc1 (relative stereo) | 25 (≈ 66.8 µM) | 25 (≈ 66.8 µM) | 12.5 (≈ 33.4 µM) | 12.5 (≈ 33.4 µM) | 50 (≈ 134 µM) | 25 (≈ 66.8 µM) | 50 (≈ 134 µM) | 6.25 (≈ 16.7 µM) | 50 (≈ 134 µM) | 12.5 (≈ 33.4 µM) |
| C=CCN1[C@H](c2ccc(OC)cc2)C/C(=N\O)[C@@H](C)[C@@H]1c1ccc(OC)cc1 (relative stereo) | 25 (≈ 65.7 µM) | 12.5 (≈ 32.9 µM) | 25 (≈ 65.7 µM) | 100 (≈ 263 µM) | 50 (≈ 131 µM) | 25 (≈ 65.7 µM) | 12.5 (≈ 32.9 µM) | 100 (≈ 263 µM) | 100 (≈ 263 µM) | 50 (≈ 131 µM) |
| C=CCN1[C@H](c2ccccc2)CC(=O)[C@@H](CC)[C@@H]1c1ccccc1 (relative stereo) | 12.5 (≈ 39.1 µM) | 100 (≈ 313 µM) | 50 (≈ 157 µM) | 100 (≈ 313 µM) | 25 (≈ 78.3 µM) | 100 (≈ 313 µM) | 100 (≈ 313 µM) | 25 (≈ 78.3 µM) | 12.5 (≈ 39.1 µM) | 50 (≈ 157 µM) |
| C=CCN1[C@H](c2ccccc2)C/C(=N\OCc2ccccc2)[C@@H](CC)[C@@H]1c1ccccc1 (relative stereo) | 12.5 (≈ 29.4 µM) | 100 (≈ 236 µM) | 25 (≈ 58.9 µM) | 25 (≈ 58.9 µM) | 50 (≈ 118 µM) | 200 (≈ 471 µM) | 100 (≈ 236 µM) | 12.5 (≈ 29.4 µM) | 50 (≈ 118 µM) | 6.25 (≈ 14.7 µM) |
| CN[C@@H]1[C@H](O[C@H]2[C@H](O[C@H]3[C@H](O)[C@@H](O)[C@H](N=C(N)N)[C@@H](O)[C@@H]3N=C(N)N)O[C@@H](C)[C@]2(O)C=O)O[C@@H](CO)[C@H](O)[C@H]1O [STREPTOMYCIN] | – | – | – | 50 (≈ 86 µM) | – | 50 (≈ 86 µM) | 25 (≈ 43 µM) | – | 12.5 (≈ 21.5 µM) | 12.5 (≈ 21.5 µM) |
| C=CCN1[C@H](c2ccc(Cl)cc2)C/C(=N\O)[C@@H](C)[C@@H]1c1ccc(Cl)cc1 (relative stereo) | 25 (≈ 64.2 µM) | 50 (≈ 128 µM) | 12.5 (≈ 32.1 µM) | 12.5 (≈ 32.1 µM) | 6.25 (≈ 16.1 µM) | 6.25 (≈ 16.1 µM) | 50 (≈ 128 µM) | 50 (≈ 128 µM) | 50 (≈ 128 µM) | 100 (≈ 257 µM) |
| C=CCN1[C@H](c2ccccc2)C/C(=N\O)[C@@H](C)[C@@H]1c1ccccc1 (relative stereo) | 25 (≈ 78 µM) | 200 (≈ 624 µM) | 100 (≈ 312 µM) | 100 (≈ 312 µM) | 50 (≈ 156 µM) | 100 (≈ 312 µM) | 200 (≈ 624 µM) | 100 (≈ 312 µM) | 50 (≈ 156 µM) | 50 (≈ 156 µM) |
| C=CCN1[C@H](c2ccccc2)C/C(=N\O)[C@@H](CC)[C@@H]1c1ccccc1 (relative stereo) | 50 (≈ 149 µM) | 6.25 (≈ 18.7 µM) | 25 (≈ 74.7 µM) | 25 (≈ 74.7 µM) | 12.5 (≈ 37.4 µM) | 25 (≈ 74.7 µM) | 50 (≈ 149 µM) | 50 (≈ 149 µM) | 12.5 (≈ 37.4 µM) | 100 (≈ 299 µM) |
| C=CCN1[C@@H](c2ccccc2)C/C(=N/O)C[C@H]1c1ccccc1 (relative stereo) | 25 (≈ 81.6 µM) | 25 (≈ 81.6 µM) | 50 (≈ 163 µM) | 100 (≈ 326 µM) | 12.5 (≈ 40.8 µM) | 50 (≈ 163 µM) | 50 (≈ 163 µM) | 50 (≈ 163 µM) | 6.25 (≈ 20.4 µM) | 25 (≈ 81.6 µM) |
| C=CCN1[C@@H](c2ccccc2)C/C(=N/OCc2ccccc2)C[C@H]1c1ccccc1 (relative stereo) | 50 (≈ 126 µM) | 100 (≈ 252 µM) | 50 (≈ 126 µM) | 100 (≈ 252 µM) | 12.5 (≈ 31.5 µM) | 50 (≈ 126 µM) | 200 (≈ 504 µM) | 100 (≈ 252 µM) | 25 (≈ 63 µM) | 6.25 (≈ 15.8 µM) |
| C=CCN1[C@H](c2ccccc2)[C@@H](C)/C(=N/OCc2ccccc2)[C@@H](C)[C@@H]1c1ccccc1 (relative stereo) | 100 (≈ 236 µM) | 100 (≈ 236 µM) | 50 (≈ 118 µM) | 50 (≈ 118 µM) | 200 (≈ 471 µM) | 12.5 (≈ 29.4 µM) | 25 (≈ 58.9 µM) | 50 (≈ 118 µM) | 100 (≈ 236 µM) | 100 (≈ 236 µM) |
